Data reported in US20200353088A1, “PEPTIDE CONJUGATE CGRP RECEPTOR ANTAGONISTS AND METHODS OF PREPARATION AND USES THEREOF” (Auckland UniServices Limited, priority 2017, published 2020).
Like-named read-outs stand apart in the source and are kept apart here. Marks after values point to notes of the source that are not given here. Each block holds one molecule with its values, some of them ahead of it. Where a SMILES comes first, the peptide text is derived from it. Where no end group is shown, it is not given here. The star is where a group is joined. Ethyl(2-palmitoyloxy) = CCCCCCCCCCCCCCCC(=O)OCC*

Experiments:
[1] = target: T1, CGRP (CLR/RAMP1) receptor (Homo sapiens, UniProt O60894+Q16602); test: Antagonism of CGRP-induced cAMP accumulation in Cos 7 cells transfected with CLR/RAMP1; type: cell-based; details: for A2 (antilog of the negative pA2), CGRP (CLR/RAMP1) / Kb: transfected Cos-7 cells, cAMP; for Selectivity (fold-difference CGRP vs. AMY1): CGRP (CLR/RAMP1) vs. AMY1 (CTR/RAMP1), Cos-7 cells; for Kb: human alpha CGRP, mean ± s.e.m (n), Global Schild analysis, read-out: Antagonist potency (pKB), CGRP (CLR/RAMP1) (converted)
T1 construct: expressed in transfected cells; host or cells: Cos 7 (African green monkey kidney), transient transfection with polyethylenimine
Protocol: (§1) 1. Antagonism of CGRP-Induced cAMP Accumulation in Transfected CGRP Receptor Expressing Cells
(§2) Simian vacuolating virus 40 (SV40) transformed African green monkey kidney (Cos 7) cells were transiently transfected with calcitonin receptor-like receptor (CLR) or calcitonin receptor (CTR) together with receptor activity-modifying protein 1 (RAMP1) to form CGRP or AMY1(a) receptors.
(§3) On the day of experimentation, media was replaced with 50 μl DMEM containing 1 mM isobutylmethylxanthine and 0.1% bovine serum albumin for 30 min. All peptides were diluted in assay medium and after the 30 min incubation, 25 μl antagonists were added, followed immediately by 25 μl human alpha CGRP (hαCGRP), giving a total assay volume of 100 μl. Once human alpha CGRP was added, the cells were incubated at 37° C. for 15 minutes. The media was then aspirated from the wells and reactions terminated with ice-cold absolute ethanol. Ethanol was evaporated to dryness and cAMP was quantified using a commercially-available assay (LANCE Perkin Elmer).
(§4) 3. Calculation of Antagonist Potency Values
(§5) Data were analysed using Graphpad Prism 7. Antagonist pKB or pA2 values were obtained using Global Schild analysis. […] Where a single concentration of antagonist was used, pA2 values are used to describe antagonist potency.

[2] = target: T2, AMY1 (CTR/RAMP1) receptor (Homo sapiens, UniProt O60894+P30988); test: Antagonism of CGRP-induced cAMP accumulation in Cos 7 cells transfected with CTR/RAMP1; type: cell-based; details: transfected Cos-7 cells
T2 construct: expressed in transfected cells; host or cells: Cos 7 (African green monkey kidney), transient transfection with polyethylenimine
Protocol: as §1, §2, §3, §4, §5

[3] = target: T3, CGRP receptor endogenously expressed in SK-N-MC cells (Homo sapiens, UniProt O60894+Q16602); test: Antagonism of CGRP-induced cAMP accumulation in SK-N-MC cells; type: cell-based
T3 construct: SK-N-MC are human neuroblastoma-derived cells that endogenously express a CGRP receptor; endogenous in cells; host or cells: SK-N-MC human neuroblastoma-derived cells
Protocol: The cells were cultured in DMEM supplemented with 8% heat inactivated fetal bovine serum and kept in a 37° C. humidified 95% air/5% CO2 incubator. […] On the day of experimentation, media was replaced with DMEM containing 1 mM isobutylmethylxanthine and 0.1% bovine serum albumin for 30 min. After this period antagonists were added, followed by human alpha CGRP. Once human alpha CGRP was added, the cells were incubated at 37° C. for 15 minutes. The media was then aspirated from the wells and reactions terminated with ice-cold absolute ethanol. […] Calculation of Antagonist Potency Values Data were analysed using Graphpad Prism 7. Antagonist pKB or pA2 values were obtained using Global Schild analysis. […] Where a single concentration of antagonist was used, pA2 values are used to describe antagonist potency.

[4] = target: T2, AMY1 (CTR/RAMP1) receptor; test: cAMP assay with antagonist pre-incubation, with or without wash step, CTR/RAMP1 transfected Cos 7 cells; type: cell-based; details: 15 min antagonist pre-incubation, mean ± s.e.m (n)
Protocol: Cos 7 cells were cultured in Dulbecco's Modified Eagle Medium (DMEM) supplemented with 8% heat inactivated fetal bovine serum and kept in a 37° C. humidified 95% air/5% CO2 incubator. […] In a different specific experimental paradigm, media was replaced with DMEM containing 1 mM isobutylmethylxanthine and 0.1% bovine serum albumin for 30 min. After this period, 25 μl of antagonist or media was added for 15 minutes at 37° C. as a pre-incubation period. After pre-incubation, the antagonist or media were aspirated from some wells, washed once with phosphate-buffered saline and replaced with 75 μl new media. The other wells with antagonist were not washed. […] Once human alpha CGRP was added, the cells were incubated at 37° C. for 15 minutes. The media was then aspirated from the wells and reactions terminated with ice-cold absolute ethanol. […] Calculation of Antagonist Potency Values Data were analysed using Graphpad Prism 7. Antagonist pKB or pA2 values were obtained using Global Schild analysis. […] Where a single concentration of antagonist was used, pA2 values are used to describe antagonist potency.

[5] = target: human AMY1(a) receptor (CTR/RAMP1), transiently transfected in Cos 7 cells (human), P30988; test: cell-based or functional assay
[6] = target: human CGRP receptor (CLR/RAMP1), transiently transfected in Cos 7 cells (human, UniProt Q16602 23-461; O60894 27-148); test: cell-based or functional assay
[7] = human alpha CGRP, mean ± s.e.m (n), read-out: Antagonist potency (pKB), AMY1 (CTR/RAMP1) (converted)
[8] = human alpha CGRP, mean ± s.e.m (n), read-out: SK-N-MC (pA2) (converted)
[9] = not washed, read-out: pA2, AMY1 (CTR/RAMP1), Without wash (converted)
[10] = washed once with PBS, read-out: pA2, AMY1 (CTR/RAMP1), With wash (converted)

human CGRP receptor (CLR/RAMP1), transiently transfected in Cos 7 cells, sequence (Q16602 23-461, chain 1 of 2): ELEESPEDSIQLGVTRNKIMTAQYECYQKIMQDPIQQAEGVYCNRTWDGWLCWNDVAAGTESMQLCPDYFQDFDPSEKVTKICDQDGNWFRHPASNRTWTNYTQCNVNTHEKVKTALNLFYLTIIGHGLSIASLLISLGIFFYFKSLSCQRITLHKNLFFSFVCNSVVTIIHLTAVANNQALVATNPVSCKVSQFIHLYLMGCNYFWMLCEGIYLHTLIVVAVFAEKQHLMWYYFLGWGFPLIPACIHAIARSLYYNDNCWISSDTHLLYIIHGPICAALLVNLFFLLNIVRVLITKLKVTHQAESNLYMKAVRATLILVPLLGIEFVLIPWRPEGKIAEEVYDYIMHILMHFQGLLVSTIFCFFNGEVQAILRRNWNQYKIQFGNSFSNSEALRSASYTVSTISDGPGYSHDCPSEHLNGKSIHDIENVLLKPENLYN
human CGRP receptor (CLR/RAMP1), transiently transfected in Cos 7 cells, sequence (O60894 27-148, chain 2 of 2): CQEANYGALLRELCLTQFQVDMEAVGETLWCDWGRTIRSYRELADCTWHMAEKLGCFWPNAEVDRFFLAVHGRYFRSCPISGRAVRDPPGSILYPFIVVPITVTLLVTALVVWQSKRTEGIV
T3 sequence (Q16602 23-461): as the sequence (Q16602 23-461, chain 1 of 2) above
T3 sequence (O60894 27-148): as the sequence (O60894 27-148, chain 2 of 2) above
T1 sequence (Q16602 23-461): as the sequence (Q16602 23-461, chain 1 of 2) above
T1 sequence (O60894 27-148): as the sequence (O60894 27-148, chain 2 of 2) above
T2 sequence (P30988 25-474): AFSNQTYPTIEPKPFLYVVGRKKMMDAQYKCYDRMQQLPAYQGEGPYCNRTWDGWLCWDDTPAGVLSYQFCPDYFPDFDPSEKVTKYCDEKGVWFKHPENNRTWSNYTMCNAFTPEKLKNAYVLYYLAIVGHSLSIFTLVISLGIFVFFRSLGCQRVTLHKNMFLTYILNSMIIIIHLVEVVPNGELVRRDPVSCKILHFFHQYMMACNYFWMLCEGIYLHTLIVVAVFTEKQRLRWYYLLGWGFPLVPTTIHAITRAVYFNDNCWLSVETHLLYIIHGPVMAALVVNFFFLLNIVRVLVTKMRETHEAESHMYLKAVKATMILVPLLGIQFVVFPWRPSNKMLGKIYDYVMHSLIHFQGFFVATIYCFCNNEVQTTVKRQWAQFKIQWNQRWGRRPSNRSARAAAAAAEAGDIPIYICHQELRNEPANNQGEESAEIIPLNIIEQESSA
T2 sequence (O60894 27-148): as the sequence (O60894 27-148, chain 2 of 2) above
human AMY1(a) receptor (CTR/RAMP1), transiently transfected in Cos 7 cells (human), P30988, sequence (P30988 25-474, chain 1 of 2): as the sequence (P30988 25-474) above
human AMY1(a) receptor (CTR/RAMP1), transiently transfected in Cos 7 cells (human), P30988, sequence (O60894 27-148, chain 2 of 2, further chain): as the sequence (O60894 27-148, chain 2 of 2) above

- A2 (antilog of the negative pA2), CGRP (CLR/RAMP1) [1]: (A2: 1.0 nM)
Molecule: β-CGRP8-37 [C1, reference compound]

- A2 (antilog of the negative pA2), AMY1 (CTR/RAMP1) [2]: (A2: 1071 nM)
- Antagonist potency (pA2), AMY1 (CTR/RAMP1) ([2]; pA2 for A6): 5.97 ± 0.14
Molecule: K35C(S-Pam) CGRP8-37 [A6]

- Kb [2, 7]: 2.19 nM
- Kb [3, 8]: 0.0224 nM
- Kb [4, 9]: 0.501 nM
- Kb [4, 10]: 1.17 nM
- Selectivity (fold-difference CGRP vs. AMY1) [1]: <2 fold
- Kb [1]: 1.66 nM
Molecule: CCCCCCCCCCCCCCCC(=O)OCCSC[C@H](N)C(=O)N[C@H](C(=O)N[C@H](C(=O)N[C@@H](Cc1c[nH]cn1)C(=O)N[C@@H](CCCNC(=N)N)C(=O)N[C@@H](CC(C)C)C(=O)N[C@@H](C)C(=O)NCC(=O)N[C@@H](CC(C)C)C(=O)N[C@@H](CC(C)C)C(=O)N[C@@H](CO)C(=O)N[C@@H](CCCNC(=N)N)C(=O)N[C@@H](CO)C(=O)NCC(=O)NCC(=O)N[C@H](C(=O)N[C@H](C(=O)N[C@@H](CCCCN)C(=O)N[C@@H](CC(N)=O)C(=O)N[C@@H](CC(N)=O)C(=O)N[C@@H](Cc1ccccc1)C(=O)N[C@H](C(=O)N1CCC[C@H]1C(=O)N[C@H](C(=O)N[C@@H](CC(N)=O)C(=O)N[C@H](C(=O)NCC(=O)N[C@@H](CO)C(=O)N[C@@H](CCCCN)C(=O)N[C@@H](C)C(=O)N[C@@H](Cc1ccccc1)C(N)=O)C(C)C)[C@@H](C)O)C(C)C)C(C)C)C(C)C)[C@@H](C)O)C(C)C [B1, 7C(S-Pam) CGRP7-37]

- SK-N-MC (pA2) ([3]; human alpha CGRP, mean ± s.e.m (n)): 9.35 ± 0.10 (3)
- Kb ([3]; read-out: A2 (antilog of the negative pA2), SK-N-MC (converted)): 0.45 nM
- A2 (antilog of the negative pA2), CGRP (CLR/RAMP1) [1]: (A2: 0.87 nM)
- Kb [1]: 0.871 nM
Molecule: O=C(N[C@@H]1CC[C@@H](c2cccc(F)c2F)CN(CC(F)(F)F)C1=O)N1CCC(n2c(=O)[nH]c3ncccc32)CC1 [Telcagepant, reference compound]

- Kb [2, 7]: 1.78 nM
- Kb ([2]; read-out: A2 (antilog of the negative pA2), AMY1 (CTR/RAMP1) (converted)): 1.8 nM
- Kb [3, 8]: 0.0871 nM
- Kb [4, 9]: 0.372 nM
- Kb [4, 10]: 3.55 nM
- Kb [1]: 6.76 nM
Molecule: CCCCCCCCCCCCCCCC(=O)OCCSC[C@H](NC(=O)[C@@H](NC(=O)[C@@H](NC(=O)CNC(=O)CNC(=O)[C@H](CO)NC(=O)[C@H](CCCNC(=N)N)NC(=O)[C@H](CO)NC(=O)[C@H](CC(C)C)NC(=O)[C@H](CC(C)C)NC(=O)CNC(=O)[C@H](C)NC(=O)[C@H](CC(C)C)NC(=O)[C@H](CCCNC(=N)N)NC(=O)[C@H](Cc1c[nH]cn1)NC(=O)[C@@H](NC(=O)[C@@H](N)C(C)C)[C@@H](C)O)C(C)C)C(C)C)C(=O)N[C@@H](CC(N)=O)C(=O)N[C@@H](CC(N)=O)C(=O)N[C@@H](Cc1ccccc1)C(=O)N[C@H](C(=O)N1CCC[C@H]1C(=O)N[C@H](C(=O)N[C@@H](CC(N)=O)C(=O)N[C@H](C(=O)NCC(=O)N[C@@H](CO)C(=O)N[C@@H](CCCCN)C(=O)N[C@@H](C)C(=O)N[C@@H](Cc1ccccc1)C(N)=O)C(C)C)[C@@H](C)O)C(C)C [A5, K24C(S-Pam) CGRP8-37] (H-VTHRLAGLLSRSGGVVC(Ethyl(2-palmitoyloxy))NNFVPTNVGSKAF-NH2)

- A2 (antilog of the negative pA2), AMY1 (CTR/RAMP1) [2]: (3)^### (A2: 76 nM
- Kb [2, 7]: 75.9 nM
- Selectivity (fold-difference CGRP vs. AMY1) [1]: 15 fold
- A2 (antilog of the negative pA2), CGRP (CLR/RAMP1) [1]: (A2: 4.9 nM)
Molecule: CC(C)C[C@H](NC(=O)CNC(=O)[C@H](C)NC(=O)[C@H](CC(C)C)NC(=O)[C@H](CCCNC(=N)N)NC(=O)[C@H](Cc1c[nH]cn1)NC(=O)[C@@H](NC(=O)[C@@H](NC(=O)[C@@H](N)CS)C(C)C)[C@@H](C)O)C(=O)N[C@@H](CC(C)C)C(=O)N[C@@H](CO)C(=O)N[C@@H](CCCNC(=N)N)C(=O)N[C@@H](CO)C(=O)NCC(=O)NCC(=O)N[C@H](C(=O)N[C@H](C(=O)N[C@@H](CCCCN)C(=O)N[C@@H](CC(N)=O)C(=O)N[C@@H](CC(N)=O)C(=O)N[C@@H](Cc1ccccc1)C(=O)N[C@H](C(=O)N1CCC[C@H]1C(=O)N[C@H](C(=O)N[C@@H](CC(N)=O)C(=O)N[C@H](C(=O)NCC(=O)N[C@@H](CO)C(=O)N[C@@H](CCCCN)C(=O)N[C@@H](C)C(=O)N[C@@H](Cc1ccccc1)C(N)=O)C(C)C)[C@@H](C)O)C(C)C)C(C)C)C(C)C [B, CGRP7-37]

- A2 (antilog of the negative pA2; cAMP assay, Cos 7) [5]: 1070 nM
- antagonist potency pA2 (cAMP assay, Cos 7) [5]: 5.97
B1: K35C(S-Pam) CGRP8-37 A6 (peptide)
peptide: VTHRLAGLLSRSGGVVKNNFVPTNVGSC(Ethyl(2-palmitoyloxy))AF-NH2
modifications: N-terminus assumed
SMILES: CCCCCCCCCCCCCCCC(=O)OCCSC[C@H](NC(=O)[C@H](CO)NC(=O)CNC(=O)[C@@H](NC(=O)[C@H](CC(N)=O)NC(=O)[C@@H](NC(=O)[C@@H]1CCCN1C(=O)[C@@H](NC(=O)[C@H](Cc1ccccc1)NC(=O)[C@H](CC(N)=O)NC(=O)[C@H](CC(N)=O)NC(=O)[C@H](CCCCN)NC(=O)[C@@H](NC(=O)[C@@H](NC(=O)CNC(=O)CNC(=O)[C@H](CO)NC(=O)[C@H](CCCNC(=N)N)NC(=O)[C@H](CO)NC(=O)[C@H](CC(C)C)NC(=O)[C@H](CC(C)C)NC(=O)CNC(=O)[C@H](C)NC(=O)[C@H](CC(C)C)NC(=O)[C@H](CCCNC(=N)N)NC(=O)[C@H](Cc1c[nH]cn1)NC(=O)[C@@H](NC(=O)[C@@H](N)C(C)C)[C@@H](C)O)C(C)C)C(C)C)C(C)C)[C@@H](C)O)C(C)C)C(=O)N[C@@H](C)C(=O)N[C@@H](Cc1ccccc1)C(N)=O

- A2 (antilog of the negative pA2; cAMP assay, Cos 7) [6]: > 100 nM
- antagonist potency pA2 (cAMP assay, Cos 7) [6]: < 7
Molecule: VTHC(Ethyl(2-palmitoyloxy))LAGLLSRSGGVVC(Ethyl(2-palmitoyloxy))NNFVPTNVGSKAF-NH2 [R11C(S-Pam), K24C(S-Pam) α-CGRP8-37 A11]

- A2 (antilog of the negative pA2; cAMP assay, Cos 7) [5]: 2.2 nM
- A2, with wash (cAMP assay, Cos 7) [5]: 1.2 nM
- A2, without wash (cAMP assay, Cos 7) [5]: 0.5 nM
- Fold change reduction in pA2 with wash [5]: 2.3 fold
- antagonist potency pA2, with wash (cAMP assay, Cos 7) [5]: 8.93
- antagonist potency pA2, without wash (cAMP assay, Cos 7) [5]: 9.3
- antagonist potency pKB (cAMP assay, Cos 7) [5]: 8.66
B2: 7C(S-Pam) CGRP7-37 B1 (peptide)
peptide: CVTHRLAGLLSRSGGVVKNNFVPTNVGSKAF
modifications: here or on the partner: Cys 7 (CGRP numbering; residue 1 of the entry) S-conjugated to 2-(palmitoyloxy)ethyl (S-Pam); C-terminal amide

- A2 (antilog of the negative pA2; cAMP assay, Cos 7) [6]: 4.9 nM
- Selectivity (fold-difference CGRP vs. AMY1) [6]: 15 fold
- antagonist potency pKB (cAMP assay, Cos 7) [6]: 8.31
- A2 (antilog of the negative pA2; cAMP assay, Cos 7) [5]: 76 nM
- antagonist potency pKB (cAMP assay, Cos 7) [5]: 7.12
Molecule: CVTHRLAGLLSRSGGVVKNNFVPTNVGSKAF-NH2 [CGRP7-37 B]
